Test [1] has as its target GSPT1 (Homo sapiens (Human), UniProt P15170+Q96SW2). Briefly: Western blot, substrate protein expression in hPBMC: GSPT1. In kind it is cell-based. The conditions noted are these: hPBMC, compound 500 nM, 24 hours, Western blot. An outline of the steps:
(§1)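 hPBMC, 1×10^6 cells/mL, 24 h compound exposure; RIPA lysis, BCA protein assay, SDS-PAGE, NC membrane immunoblot. Densitometry vs internal control → % protein remaining; degradation % = 100% − remaining; DC50 = conc. at 50% of DMSO band signal.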

Test [2] addresses human Cereblon WT GST-tagged protein (Homo sapiens (Human), UniProt Q96SW2). Description: CRBN-binding affinity, HTRF (CEREBLON BINDING kit, CISBIO). Particulars: HTRF inhibitory activity. In a few lines:
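HTRF competition format: test compound displaces Thalidomide-Red from GST-tagged human Cereblon WT, detected with a Eu-labelled anti-GST antibody. Percent CRBN binding inhibition was derived from the 620 nm signal, normalized to solvent-control and protein-free blank wells.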

Test [3] has as its target IKZF3 (Homo sapiens (Human), UniProt Q96SW2+Q9UKT9). Briefly: Western blot, substrate protein expression in hPBMC: IKZF3. In kind it is cell-based. The conditions noted are these: hPBMC, compound 500 nM, 24 hours, Western blot. An outline of the steps:
as §1

Test [4] has as its target IKZF1 (Homo sapiens (Human), UniProt Q13422+Q96SW2). Briefly: Western blot, substrate protein expression in hPBMC: IKZF1. In kind it is cell-based. Particulars: hPBMC, compound 500 nM, 24 hours, Western blot. An outline of the steps: as §1
The subject of test [5] is MM.1R cells (dexamethasone-resistant human multiple myeloma cells). Description: Tumor cell proliferation inhibition, CCK-8. It is filed as cell-based. The conditions noted are these: MM.1R cells, CCK-8, read-out: inhibitory activity (IC50, nM) MM.1R. An outline of the steps: (§2)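 STR-authenticated, mycoplasma-free cells cultured at 37° C with 5% CO2. Compound added 24 h post-seeding, 10 μM top, 5-fold × 10. Viability by CCK-8; IC50 from inhibition curve.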

The subject of test [6] is MM.1S cells (human multiple myeloma cells). Briefly: Tumor cell proliferation inhibition, CCK-8. The conditions noted are these: MM1.S, MM.1S cells, CCK-8, read-out: inhibitory activity (IC50, nM) MM.1S. In kind it is cell-based. In a few lines:
as §2

Test [7] has as its system CCRF-CEM (human acute lymphoblastic leukemia T-cells). Description: Tumor cell proliferation inhibition, CCK-8. It is filed as cell-based. The conditions noted are these: CCRF-CEM cells, CCK-8, read-out: inhibitory activity (IC50, nM) CCRF-CEM. An outline of the steps:
as §2

For test [8], the system named is Jurkat cells (human T-cell leukemia cells). Briefly: Tumor cell proliferation inhibition, CCK-8. In kind it is cell-based. Particulars: Jurkat cells, CCK-8, read-out: inhibitory activity (IC50, nM) Jurkat. In a few lines:
as §2

Test [9] relates to CAL-62 (human thyroid carcinoma cells). Description: Tumor cell proliferation inhibition, CCK-8. In kind it is cell-based. The conditions noted are these: CAL-62 cells, CCK-8, read-out: inhibitory activity (IC50, nM) CAL-62. An outline of the steps:
as §2

In test [10] the test system is TMD8 cells (human diffuse large B-cell lymphoma cells). Briefly: Tumor cell proliferation inhibition, CCK-8. It is filed as cell-based. The conditions noted are these: TMD8 cells, CCK-8, read-out: inhibitory activity (IC50, nM) TMD8. An outline of the steps:
as §2

For test [11], the system named is MDA-MB-231 cells (human breast adenocarcinoma cells). Description: Tumor cell proliferation inhibition, CCK-8. It is filed as cell-based. Particulars: MDA-MB-231 cells, CCK-8, read-out: inhibitory activity (IC50, nM) MDA-MB-231. In a few lines:
as §2

In test [12] the test system is H146 cells (human small cell lung carcinoma cells). Description: Tumor cell proliferation inhibition, CCK-8. In kind it is cell-based. Particulars: NCI-H146, H146 cells, CCK-8, read-out: inhibitory activity (IC50, nM) H146. In a few lines: as §2

Results on 10 molecules are retold here after US20250320193A1, “OXOISOINDOLINYL SUBSTITUTED PIPERIDINEDIONE DERIVATIVE AND USE THEREOF” (GLUETACS THERAPEUTICS (SHANGHAI) CO., LTD., priority 2022, published 2025).

A value given as a limit tells only on which side of the number the result lay.

Chain of IKZF3 (Q9UKT9 whole entry): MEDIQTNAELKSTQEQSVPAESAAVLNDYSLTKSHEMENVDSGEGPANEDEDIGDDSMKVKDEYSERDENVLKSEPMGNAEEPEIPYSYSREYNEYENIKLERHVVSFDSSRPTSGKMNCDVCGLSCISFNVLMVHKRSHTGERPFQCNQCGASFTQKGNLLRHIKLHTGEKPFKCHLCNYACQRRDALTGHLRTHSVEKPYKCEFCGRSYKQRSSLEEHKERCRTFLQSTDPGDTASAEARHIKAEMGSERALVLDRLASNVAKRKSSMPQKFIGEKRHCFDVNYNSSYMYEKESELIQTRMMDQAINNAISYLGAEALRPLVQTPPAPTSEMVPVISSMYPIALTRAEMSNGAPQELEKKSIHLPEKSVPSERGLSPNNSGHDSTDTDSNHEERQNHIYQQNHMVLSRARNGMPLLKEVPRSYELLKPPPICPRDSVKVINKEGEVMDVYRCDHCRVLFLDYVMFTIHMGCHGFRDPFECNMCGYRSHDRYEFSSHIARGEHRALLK
Chain of IKZF3 (Q96SW2 whole entry): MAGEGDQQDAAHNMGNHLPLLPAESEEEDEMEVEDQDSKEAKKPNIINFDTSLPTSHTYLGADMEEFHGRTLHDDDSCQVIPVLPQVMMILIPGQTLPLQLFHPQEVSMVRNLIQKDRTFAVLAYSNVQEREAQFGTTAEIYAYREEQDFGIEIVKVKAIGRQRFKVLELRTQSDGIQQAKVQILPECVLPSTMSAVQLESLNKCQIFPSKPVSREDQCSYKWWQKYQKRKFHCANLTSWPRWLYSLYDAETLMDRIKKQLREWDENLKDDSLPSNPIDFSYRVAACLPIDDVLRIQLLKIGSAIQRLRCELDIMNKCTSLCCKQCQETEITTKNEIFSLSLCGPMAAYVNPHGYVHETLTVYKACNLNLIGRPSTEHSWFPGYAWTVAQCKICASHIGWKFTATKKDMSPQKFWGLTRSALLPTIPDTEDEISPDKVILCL
Chain of IKZF3 (Q16531 whole entry partner): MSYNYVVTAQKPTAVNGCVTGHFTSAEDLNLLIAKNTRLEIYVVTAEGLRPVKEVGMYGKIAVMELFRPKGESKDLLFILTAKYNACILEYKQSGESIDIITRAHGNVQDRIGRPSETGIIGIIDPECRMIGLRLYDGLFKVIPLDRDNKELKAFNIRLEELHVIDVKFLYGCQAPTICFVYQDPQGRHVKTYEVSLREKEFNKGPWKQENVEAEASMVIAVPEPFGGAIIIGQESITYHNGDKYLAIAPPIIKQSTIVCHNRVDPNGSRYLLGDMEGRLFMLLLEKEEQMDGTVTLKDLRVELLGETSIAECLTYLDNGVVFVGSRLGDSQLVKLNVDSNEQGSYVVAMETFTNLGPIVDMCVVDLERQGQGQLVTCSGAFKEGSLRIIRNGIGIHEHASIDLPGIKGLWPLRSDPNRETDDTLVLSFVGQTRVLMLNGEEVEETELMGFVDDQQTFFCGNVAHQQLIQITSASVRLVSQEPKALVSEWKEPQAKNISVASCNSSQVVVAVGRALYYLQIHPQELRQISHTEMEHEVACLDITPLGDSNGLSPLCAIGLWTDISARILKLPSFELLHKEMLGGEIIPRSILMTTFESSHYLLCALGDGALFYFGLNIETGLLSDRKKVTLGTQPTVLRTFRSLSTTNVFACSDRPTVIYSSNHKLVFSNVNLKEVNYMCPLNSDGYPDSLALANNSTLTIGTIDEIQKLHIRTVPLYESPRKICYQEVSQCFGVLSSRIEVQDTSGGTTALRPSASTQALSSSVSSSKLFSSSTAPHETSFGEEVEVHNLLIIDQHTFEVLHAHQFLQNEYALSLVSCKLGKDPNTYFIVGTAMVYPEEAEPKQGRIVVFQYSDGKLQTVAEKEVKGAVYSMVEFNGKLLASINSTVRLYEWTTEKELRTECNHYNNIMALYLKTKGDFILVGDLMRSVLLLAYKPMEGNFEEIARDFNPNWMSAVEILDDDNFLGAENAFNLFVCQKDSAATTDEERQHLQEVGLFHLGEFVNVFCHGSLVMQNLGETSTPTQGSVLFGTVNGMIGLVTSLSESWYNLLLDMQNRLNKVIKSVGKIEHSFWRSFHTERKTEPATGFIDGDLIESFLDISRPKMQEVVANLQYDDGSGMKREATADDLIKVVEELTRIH
Chain of IKZF1 (Q13422 whole entry): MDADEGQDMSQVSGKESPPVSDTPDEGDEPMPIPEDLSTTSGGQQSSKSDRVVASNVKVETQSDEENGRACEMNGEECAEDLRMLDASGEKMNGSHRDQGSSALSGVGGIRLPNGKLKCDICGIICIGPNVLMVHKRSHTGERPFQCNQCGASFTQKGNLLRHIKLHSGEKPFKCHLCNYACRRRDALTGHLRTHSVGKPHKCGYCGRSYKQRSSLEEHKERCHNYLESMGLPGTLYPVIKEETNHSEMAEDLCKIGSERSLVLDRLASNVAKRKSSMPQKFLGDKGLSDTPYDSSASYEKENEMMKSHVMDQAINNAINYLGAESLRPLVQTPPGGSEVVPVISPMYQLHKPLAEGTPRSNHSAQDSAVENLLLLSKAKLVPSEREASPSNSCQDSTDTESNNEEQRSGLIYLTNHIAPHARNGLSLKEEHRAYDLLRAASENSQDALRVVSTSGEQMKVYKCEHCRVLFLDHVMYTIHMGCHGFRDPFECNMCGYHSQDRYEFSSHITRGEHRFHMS
Chain of IKZF1 (Q96SW2 whole entry): as the sequence (Q96SW2 whole entry) above
Chain of IKZF1 (Q16531 whole entry partner): as the sequence (Q16531 whole entry partner) above
Chain of GSPT1 (P15170 whole entry): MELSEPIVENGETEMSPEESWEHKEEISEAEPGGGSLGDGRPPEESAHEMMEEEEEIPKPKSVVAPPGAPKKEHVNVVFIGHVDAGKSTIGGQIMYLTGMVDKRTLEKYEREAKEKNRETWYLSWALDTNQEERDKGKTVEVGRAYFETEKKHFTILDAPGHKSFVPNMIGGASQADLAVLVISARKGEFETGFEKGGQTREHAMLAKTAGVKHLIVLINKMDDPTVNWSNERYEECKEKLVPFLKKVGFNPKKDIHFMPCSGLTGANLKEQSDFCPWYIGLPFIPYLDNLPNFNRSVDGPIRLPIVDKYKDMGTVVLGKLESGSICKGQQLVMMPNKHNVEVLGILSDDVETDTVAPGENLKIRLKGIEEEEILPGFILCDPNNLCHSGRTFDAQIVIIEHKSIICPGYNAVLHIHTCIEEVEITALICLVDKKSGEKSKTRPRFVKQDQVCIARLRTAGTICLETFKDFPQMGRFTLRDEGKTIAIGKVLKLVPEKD
Chain of GSPT1 (Q96SW2 whole entry): as the sequence (Q96SW2 whole entry) above
Chain of GSPT1 (Q16531 whole entry partner): as the sequence (Q16531 whole entry partner) above
Chain of human Cereblon WT GST-tagged protein (Q96SW2 whole entry): as the sequence (Q96SW2 whole entry) above

`O=C1CCC(N2Cc3cc(CN4C5CCC4CN(C(c4ccccc4)c4ccccc4)C5)ccc3C2=O)C(=O)N1` (stereo not shown) [GT-03837, 3-(5-((3-benzhydryl-3,8-diazabicyclo[3.2.1]octan-8-yl)methyl)-1-oxoisoindolin-2-yl)piperidine-2,6-dione]: the “substrate protein remaining % GSPT1” value in test [1] is listed as “A (A represents 0% ≤ substrate protein remaining % ≤ 50%)”. Moreover, the IC50 in [2] was below 500 nM; in test [5], 500 to 1000 nM; in [6], 10 to 50 nM. Also, the “substrate protein remaining % IKZF3” value in [3] was “A (A represents 0% ≤ substrate protein remaining % ≤ 50%)”. Also, the “substrate protein remaining % IKZF1” value in test [4] was “B (B represents substrate protein remaining % > 50%)”.

On to `O=C1CCC(N2Cc3cc(CN4CCN(C(c5ccccc5)c5ccncc5)CC4)ccc3C2=O)C(=O)N1` (stereo not shown) [GT-04205, 3-(1-oxo-5-((4-(phenyl(pyridin-4-yl)methyl)piperazin-1-yl)methyl)isoindolin-2-yl)piperidine-2,6-dione], for which, in test [1], the “substrate protein remaining % GSPT1” value is reported as “A (A represents 0% ≤ substrate protein remaining % ≤ 50%)”. The IC50 in test [2] was below 500 nM; in test [7], 50 to 100 nM; in test [8] it was 500 to 1000 nM; in test [9], 10 to 50 nM; in test [6] it was 100 to 500 nM; in test [10] it was 50 to 100 nM. Also, the “substrate protein remaining % IKZF3” value in [3] is recorded as “A (A represents 0% ≤ substrate protein remaining % ≤ 50%)”. The “substrate protein remaining % IKZF1” value in [4] is “A (A represents 0% ≤ substrate protein remaining % ≤ 50%)”.

Turning to `O=C1CCC(N2Cc3cc(CN4CCC(N(c5ccccc5)c5ccccc5)CC4)ccc3C2=O)C(=O)N1` (stereo not shown) [GT-04225, 3-(5-((4-(diphenylamino)piperidin-1-yl)methyl)-1-oxoisoindolin-2-yl)piperidine-2,6-dione], the “substrate protein remaining % GSPT1” value in test [1] is reported as “A (A represents 0% ≤ substrate protein remaining % ≤ 50%)”. In addition, the IC50 was below 500 nM in test [2]; below 1 nM in [7]; 1 to 10 nM in [11]; below 1 nM in test [8]; below 1 nM in [9]; 1 to 10 nM in test [12]. Besides, the IC50 in test [6] was below 1 nM; in test [10], 1 to 10 nM. The “substrate protein remaining % IKZF3” value in test [3] was “A (A represents 0% ≤ substrate protein remaining % ≤ 50%)”. Further, the “substrate protein remaining % IKZF1” value in test [4] is given as “A (A represents 0% ≤ substrate protein remaining % ≤ 50%)”.

For the molecule `O=C1CCC(N2Cc3c(ccc(CN4CCC(N(c5ccccc5)c5ccccc5)CC4)c3F)C2=O)C(=O)N1` (stereo not shown) [GT-04226, 3-(5-((4-(diphenylamino)piperidin-1-yl)methyl)-4-fluoro-1-oxoisoindolin-2-yl)piperidine-2,6-dione], in test [1], the “substrate protein remaining % GSPT1” value is “A (A represents 0% ≤ substrate protein remaining % ≤ 50%)”. Further, the IC50 in test [2] is below 500 nM; in test [7] it was below 1 nM; in [11], 1 to 10 nM; in [8] it was below 1 nM; in test [9], below 1 nM; in [12], 1 to 10 nM. The values for the IC50 in test [6] and in test [10] were below 1 nM and 1 to 10 nM, respectively. Besides, the “substrate protein remaining % IKZF3” value in test [3] was “A (A represents 0% ≤ substrate protein remaining % ≤ 50%)”. Also, in [4], the “substrate protein remaining % IKZF1” value is reported as “A (A represents 0% ≤ substrate protein remaining % ≤ 50%)”.

Take `O=C1CCC(N2Cc3cc(CN4CCC(N(c5ccccc5)c5ccccc5)CC4)c(F)cc3C2=O)C(=O)N1` (stereo not shown) [GT-04227, 3-(5-((4-(diphenylamino)piperidin-1-yl)methyl)-6-fluoro-1-oxoisoindolin-2-yl)piperidine-2,6-dione]: the “substrate protein remaining % GSPT1” value in [1] is reported as “A (A represents 0% ≤ substrate protein remaining % ≤ 50%)”. The IC50 was 500 to 1000 nM in test [2]; below 1 nM in test [7]; 1 to 10 nM in [11]; below 1 nM in test [8]; below 1 nM in [9]; 1 to 10 nM in test [12]. Also, the IC50 in [6] was below 1 nM; in test [10], 1 to 10 nM. The “substrate protein remaining % IKZF3” value in [3] is reported as “A (A represents 0% ≤ substrate protein remaining % ≤ 50%)”. The “substrate protein remaining % IKZF1” value in test [4] is recorded as “A (A represents 0% ≤ substrate protein remaining % ≤ 50%)”.

With `O=C1CCC(N2Cc3c(ccc(CN4CCN(C(c5ccccc5)c5ccncc5)CC4)c3F)C2=O)C(=O)N1` (stereo not shown) [GT-04247, 3-(4-fluoro-1-oxo-5-((4-(phenyl(pyridin-4-yl)methyl)piperazin-1-yl)methyl)isoindolin-2-yl)piperidine-2,6-dione], the “substrate protein remaining % GSPT1” value in [1] is given as “A (A represents 0% ≤ substrate protein remaining % ≤ 50%)”. The IC50 was below 500 nM in test [2], 50 to 100 nM in [7], 50 to 100 nM in test [9] and 100 to 500 nM in [6]. Besides, in [3], the “substrate protein remaining % IKZF3” value is given as “A (A represents 0% ≤ substrate protein remaining % ≤ 50%)”. In [4], the “substrate protein remaining % IKZF1” value is given as “A (A represents 0% ≤ substrate protein remaining % ≤ 50%)”.

As to `O=C1CCC(N2Cc3cc(CN4CCN(C(c5ccccc5)c5ccncc5)CC4)c(F)cc3C2=O)C(=O)N1` (stereo not shown) [GT-04248, 3-(6-fluoro-1-oxo-5-((4-(phenyl(pyridin-4-yl)methyl)piperazin-1-yl)methyl)isoindolin-2-yl)piperidine-2,6-dione], in test [1], the “substrate protein remaining % GSPT1” value is on record as “A (A represents 0% ≤ substrate protein remaining % ≤ 50%)”. In addition, the IC50 in test [2] was 500 to 1000 nM; in test [7], 10 to 50 nM; in [11] it was 100 to 500 nM; in test [8], 50 to 100 nM; in test [9] it was 10 to 50 nM; in test [12] it was 100 to 500 nM. In addition, the IC50 in [6] was in the range of 50 to 100 nM. The “substrate protein remaining % IKZF3” value in test [3] was “B (B represents substrate protein remaining % > 50%)”. The “substrate protein remaining % IKZF1” value in [4] is listed as “A (A represents 0% ≤ substrate protein remaining % ≤ 50%)”.

In the case of `O=C1CCC(N2Cc3cc(CN4CCN(C(c5ccccc5)c5cccnc5)CC4)ccc3C2=O)C(=O)N1` (stereo not shown) [GT-04249, 3-(1-oxo-5-((4-(phenyl(pyridin-3-yl)methyl)piperazin-1-yl)methyl)isoindolin-2-yl)piperidine-2,6-dione], the “substrate protein remaining % GSPT1” value in [1] was “A (A represents 0% ≤ substrate protein remaining % ≤ 50%)”. Moreover, the IC50 in test [2] is below 500 nM; in [7], 10 to 50 nM; in test [9], 10 to 50 nM; in test [6], 500 to 1000 nM; in test [10], 100 to 500 nM. Besides, in [3], the “substrate protein remaining % IKZF3” value is reported as “A (A represents 0% ≤ substrate protein remaining % ≤ 50%)”. The “substrate protein remaining % IKZF1” value in test [4] is on record as “A (A represents 0% ≤ substrate protein remaining % ≤ 50%)”.

Turning to `O=C1CCC(N2Cc3c(ccc(CN4CCN(C(c5ccccc5)c5cccnc5)CC4)c3F)C2=O)C(=O)N1` (stereo not shown) [GT-04250, 3-(4-fluoro-1-oxo-5-((4-(phenyl(pyridin-3-yl)methyl)piperazin-1-yl)methyl)isoindolin-2-yl)piperidine-2,6-dione], the “substrate protein remaining % GSPT1” value in test [1] is “A (A represents 0% ≤ substrate protein remaining % ≤ 50%)”. Also, the half-maximal inhibitory concentration (IC50) in test [2] is below 500 nM; in [7], 50 to 100 nM; in test [9] it was 50 to 100 nM; in test [6] it was 100 to 500 nM. In [3], the “substrate protein remaining % IKZF3” value is given as “A (A represents 0% ≤ substrate protein remaining % ≤ 50%)”. Also, the “substrate protein remaining % IKZF1” value in [4] is on record as “A (A represents 0% ≤ substrate protein remaining % ≤ 50%)”.

Turning to `O=C1CCC(N2Cc3cc(CN4CCN(C(c5ccccc5)c5cccnc5)CC4)c(F)cc3C2=O)C(=O)N1` (stereo not shown) [GT-04251, 3-(6-fluoro-1-oxo-5-((4-(phenyl(pyridin-3-yl)methyl)piperazin-1-yl)methyl)isoindolin-2-yl)piperidine-2,6-dione], the “substrate protein remaining % GSPT1” value in [1] is “A (A represents 0% ≤ substrate protein remaining % ≤ 50%)”. Moreover, the IC50 in [2] is below 500 nM; in [7] it was 10 to 50 nM; in test [11], 100 to 500 nM; in test [8], 50 to 100 nM; in [9], 10 to 50 nM; in test [12] it was 100 to 500 nM. Further, the half-maximal inhibitory concentration (IC50) was 10 to 50 nM in test [6] and 100 to 500 nM in test [10]. For the same molecule, the “substrate protein remaining % IKZF3” value in test [3] is “A (A represents 0% ≤ substrate protein remaining % ≤ 50%)”. Besides, the “substrate protein remaining % IKZF1” value in [4] is listed as “A (A represents 0% ≤ substrate protein remaining % ≤ 50%)”.
